From patent US20150258057A1, “FATTY ACID DERIVATIVES FOR TREATING INFECTIOUS DISEASES” (IMARKO RESEARCH S.A., priority 2014, published 2015)

Assays:
Assay in all cases: diffusion method in agar medium (zone of inhibition)
Format in all cases: cell-based
Lactobacillus paracasei = settings: for inhibition of growth (in words): Table 2
Experimental: (§1) The antibiotic activity of zinc and copper soaps (salts of copper caprylate, caprate, caproate and laurate; and salts of zinc caprylate, caprate, caproate and laurate) was measured according to the diffusion method in agar medium, the protocol of which is detailed below.
(§2) This method consists in depositing on inoculated agar culture medium sterile absorbent paper discs impregnated with the antibiotic solution to be examined.
(§3) The activity of an antibiotic is estimated by comparing the inhibition of growth of sensitive microorganisms caused respectively by known concentrations of the antibiotic to be examined and of a reference substance.
(§4) The diluents and culture media used are: • 0.85% physiological saline (AES, reference PHYW-AEB110389), • buffered peptone water (bioMerieux, reference 42111), • Sabouraud glucose agar with chloramphenicol (bioMerieux, reference 42620), • Neutral MRS agar pH=6.4 (AES, reference AEB621756N), • Trypcase soy agar (bioMerieux, reference 41466), • Cetrimide agar (bioMerieux, reference 43565).
(§5) The agar culture medium is poured into a petri dish. Once solidified, the surface of the agar is inoculated in a layer with the selected microorganism. Then fitter paper discs, 6.6 mm in diameter, impregnated with the various solutions to be tested are placed on the surface. The petri dishes are left at room temperature for about 1 hour to allow the substances to diffuse in the agar.
(§6) The cultures are then incubated at 32.5° C.±2.5° C. The agar media and the incubation conditions are suited to the inoculated microorganism.
(§7) The diameter of the zone of inhibition is a function of the concentration, diffusion and activity of the tested substance placed on the filter.

Bifidobacterium = settings: for inhibition of growth (in words): Table 2
Experimental: as §1, §2, §3, §4, §5, §6, §7

[1] = system: Lactobacillus acidophilus; settings: for inhibition of growth (in words): Table 2
Experimental: as §1, §2, §3, §4, §5, §6, §7

Saccharomyces cerevisiae = settings: for inhibition of growth (in words): Table 2
Experimental: as §1, §2, §3, §4, §5, §6, §7

Pseudomonas putida = settings: 200 mg in 2 ml of DMSO, disc 6.6 mm
Experimental: as §1, §2, §3, §4, §5, §6, §7

[2] = system: Bacillus coagulans (spores); settings: for inhibition of growth (in words): Table 2
Experimental: as §1, §2, §3, §4, §5, §6, §7

Lactobacillus plantarum = settings: for inhibition of growth (in words): Table 2
Experimental: as §1, §2, §3, §4, §5, §6, §7

[3] = 200 mg in 2 ml of DMSO, disc 6.6 mm

Compound | Diameter of inhibition (Lactobacillus paracasei; [3]) [mm] | Diameter of inhibition (Bifidobacterium; [3]) [mm] | Diameter of inhibition [1, 3] [mm] | Diameter of inhibition (Saccharomyces cerevisiae; [3]) [mm] | Diameter of inhibition (Pseudomonas putida) [mm] | Diameter of inhibition [2, 3] [mm] | Diameter of inhibition (Lactobacillus plantarum; [3]) [mm] | inhibition of growth (in words) (Lactobacillus paracasei) | inhibition of growth (in words) (Bifidobacterium) | inhibition of growth (in words) [1] | inhibition of growth (in words) (Saccharomyces cerevisiae) | inhibition of growth (in words) [2] | inhibition of growth (in words) (Lactobacillus plantarum)
CCCCCCCC(=O)Oc1cc(C)ccc1C(C)C [Thymol caprylate] | 7.75 | 9 | 8.2 | 7.28 | 7.86 | 8.5 | 6.9 | – | – | – | – | – | –
CCCCCCCCCCCC(=O)OCC(O)CO (stereo not shown) [Glycerol monolaurate] | – | – | – | – | – | – | – | no inhibition | no inhibition | inhibition | no inhibition | inhibition | no inhibition
CCCCCCCC(=O)OCC(O)CO (stereo not shown) [Glyceryl caprylate] | – | – | – | – | – | – | – | inhibition | inhibition | inhibition | inhibition | inhibition | inhibition
